From patent publication US20200239530A1, “COMPOUNDS AND METHODS OF MODULATING PROTEIN DEGRADATION” (Vividion Therapeutics, Inc., priority 2017, published 2020)

Key:
[1] = target: T1, BACH2 Transcription regulator protein BACH2 (Homo sapiens, UniProt Q9BYV9); assay: Cysteine liganding, probe competition; type: binding
T1 construct: Cells were resuspended in cold PBS on ice and sonicated with a probe sonicator to achieve lysis; endogenous in cells
In short: (§1)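 Steps: sonicate cells in cold PBS; treat 5 mg/ml lysate with compound (25° C, 1 hr); add desthiobiotin iodoacetamide probe from a 10 mM stock (25° C, 1 hr); precipitate, reduce, alkylate, digest with trypsin; capture labelled peptides on streptavidin for analysis.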

[2] = target: T2, VPS18 Vacuolar protein sorting-associated protein 18 homolog (Homo sapiens, UniProt Q9P253); assay: Cysteine liganding, probe competition; type: binding
T2 construct: Cells were resuspended in cold PBS on ice and sonicated with a probe sonicator to achieve lysis; endogenous in cells
T2 sequence (Q9P253 1-973): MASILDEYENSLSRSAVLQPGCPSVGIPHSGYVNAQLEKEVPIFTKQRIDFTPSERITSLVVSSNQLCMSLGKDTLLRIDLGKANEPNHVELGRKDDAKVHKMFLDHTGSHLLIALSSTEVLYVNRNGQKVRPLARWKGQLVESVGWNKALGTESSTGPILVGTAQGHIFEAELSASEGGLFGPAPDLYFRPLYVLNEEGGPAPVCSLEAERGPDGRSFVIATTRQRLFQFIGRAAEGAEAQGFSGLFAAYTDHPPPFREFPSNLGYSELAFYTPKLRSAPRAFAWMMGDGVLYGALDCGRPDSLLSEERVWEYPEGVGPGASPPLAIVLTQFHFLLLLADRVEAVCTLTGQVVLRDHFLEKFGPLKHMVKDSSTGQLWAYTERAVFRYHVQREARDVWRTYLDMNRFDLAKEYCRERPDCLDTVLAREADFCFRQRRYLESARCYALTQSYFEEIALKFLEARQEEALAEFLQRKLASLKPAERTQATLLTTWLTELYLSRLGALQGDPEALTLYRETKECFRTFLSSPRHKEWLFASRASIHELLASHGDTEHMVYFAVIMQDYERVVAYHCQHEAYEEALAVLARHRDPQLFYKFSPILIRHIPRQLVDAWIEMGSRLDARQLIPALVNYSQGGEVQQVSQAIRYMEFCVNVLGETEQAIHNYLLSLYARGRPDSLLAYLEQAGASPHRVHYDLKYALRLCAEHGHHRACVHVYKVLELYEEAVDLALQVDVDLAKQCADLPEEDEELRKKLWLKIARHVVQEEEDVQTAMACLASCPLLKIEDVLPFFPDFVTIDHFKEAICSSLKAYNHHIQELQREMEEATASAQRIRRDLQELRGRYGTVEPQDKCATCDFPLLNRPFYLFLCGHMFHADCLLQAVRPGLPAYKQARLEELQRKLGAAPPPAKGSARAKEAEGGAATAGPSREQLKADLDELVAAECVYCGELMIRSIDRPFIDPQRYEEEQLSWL
In short: as §1

T1 sequence (Q9BYV9 whole entry): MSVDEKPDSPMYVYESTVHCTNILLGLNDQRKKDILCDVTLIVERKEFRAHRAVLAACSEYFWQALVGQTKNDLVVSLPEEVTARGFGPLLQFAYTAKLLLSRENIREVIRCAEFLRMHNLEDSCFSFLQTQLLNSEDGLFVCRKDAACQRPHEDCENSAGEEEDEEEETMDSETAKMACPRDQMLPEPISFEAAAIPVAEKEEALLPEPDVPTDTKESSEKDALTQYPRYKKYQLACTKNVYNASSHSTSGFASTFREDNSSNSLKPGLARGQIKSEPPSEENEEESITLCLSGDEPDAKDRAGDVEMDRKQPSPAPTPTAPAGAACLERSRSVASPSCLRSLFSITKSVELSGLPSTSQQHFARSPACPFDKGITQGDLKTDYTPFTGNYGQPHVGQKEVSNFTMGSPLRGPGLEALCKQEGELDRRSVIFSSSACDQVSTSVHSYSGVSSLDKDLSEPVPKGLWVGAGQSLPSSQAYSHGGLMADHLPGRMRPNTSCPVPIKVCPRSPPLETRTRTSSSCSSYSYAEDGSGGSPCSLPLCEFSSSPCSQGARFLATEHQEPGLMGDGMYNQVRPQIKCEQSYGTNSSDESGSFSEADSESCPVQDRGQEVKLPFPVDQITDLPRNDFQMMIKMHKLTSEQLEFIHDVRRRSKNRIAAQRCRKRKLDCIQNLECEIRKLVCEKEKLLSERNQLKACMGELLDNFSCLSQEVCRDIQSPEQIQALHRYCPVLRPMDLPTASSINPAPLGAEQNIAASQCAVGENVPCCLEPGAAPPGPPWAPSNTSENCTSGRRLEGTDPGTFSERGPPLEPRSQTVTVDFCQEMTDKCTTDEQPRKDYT

SMILES	Liganded ([1]; BACH2 Res# 370, uniprot Q9BYV9)	Liganded ([2]; VPS18 Res# 806, uniprot Q9P253)	100 Max ([1]; uniprot Q9BYV9)	100 ave ([1]; uniprot Q9BYV9)	500 ave ([1]; uniprot Q9BYV9)	500 Max ([1]; uniprot Q9BYV9, unit assumed) [%]	100 Max ([2]; uniprot Q9P253)	100 ave ([2]; uniprot Q9P253)	500 Max ([2]; uniprot Q9P253)	500 ave ([2]; uniprot Q9P253)
COc1ccc2c(c1)CCCN2C(=O)CCl [KB02]	YES	YES	–	–	–	–	–	–	–	–
O=C(CCl)Nc1cc(C(F)(F)F)cc(C(F)(F)F)c1 [KBO3]	–	–	25.4	17.2	62.8	62.8	19.6	16.2	47.0	47.0
